Laboratory results as given in patent US11813264B2, “PAR1 modulation to alter myelination” (Mayo Foundation for Medical Education and Research, priority 2014, dated 2023).
Where no end group is shown, it is not given here.

How the values were obtained:
[1] = tested on: primary oligodendrocyte cultures (3 DIV); experiment: ATP toxicity assay in oligodendrocytes; type: cell-based, mouse
Protocol: (§1) PAR agonist-induced changes in oligodendrocyte morphology: To determine the effects of recombinant Klk6, Klk1, thrombin, or PAR1-AP on oligodendroglia, 3 DIV PAR1^+/+, PAR1^−/−, and PAR2^−/− oligodendrocytes, PAR1^+/+ OPCs immediately post purification, or Oli-neu cells were grown on cover slips in the presence of agonists for 24 h. For ATP toxicity assays, oligodendrocytes were incubated with ATP (50 μM, Sigma Aldrich) in the presence of Klk6 or Klk1. Following each treatment, oligodendrocyte and OPC cultures were immunolabeled for O4 to visualize the cell body and processes. Oli-neu processes were visualized by staining the actin cytoskeleton with Cy3-conjugated Phalloidin.
(§2) To assess the effects of Klk6 and other PAR1 agonists on oligodendrocyte morphology and process stability, 20× digital micrographs were overlaid with a 780 μm^2 grid and ImageJ software 1.45r (National Institutes of Health) used to record cell number and the number of processes crossing horizontal grid lines (Scarisbrick et al., Brain 125:1283-1296, 2002). Data are expressed as the mean number of O4^+ or Phalloidin^+ processes per DAPI^+ cell (±SEM).
(§3) The extent of oligodendrocyte morphological differentiation was determined by scoring O4^+/DAPI^+ oligodendrocyte morphology as simple (only primary processes, no secondary branching), incomplete (one or more primary process without secondary branching), complete (all primary processes with secondary branching), or membrane (complete secondary branching with membrane sheets) (Huang et al., Nat Neurosci 14:45-53, 2011). The mean number of cells in each morphology class was determined across treatments and expressed as percent of total O4^+/DAPI^+ cells.
(§4) Changes in OPC or oligodendrocyte morphology were quantified from five microscopic fields per cover slip with the mean and SEM calculated across three cover slips per experiment. Each experiment was repeated at least twice using independent cultures. Analysis of oligodendrocyte morphology was performed without knowledge of treatment groups.

[2] = tested on: PLP and MBP RNA expression; experiment: Myelin gene expression (PLP, MBP RNA) in Oli-neu oligodendrocytes, quantitative RT-PCR; type: cell-based, mouse; conditions: for PLP expression: 24 hours, Klk6 300 nM, thrombin 270 nM, PAR1-AP 100 μM, Klk1 300 nM
Protocol: (§5) Oli-neu oligodendrocytes are derived from mouse primary oligodendrocyte cultures retrovirally transduced to constitutively express the t-neu oncogene (Jung et al., Eur J Neurosci 7:1245-1265, 1995). All morphology, signaling, and myelin gene expression studies using Oli-neu oligodendrocytes were performed in media containing DMEM, 1% N2, 2 mM Glutamax, 1 mM sodium pyruvate, 20 mM HEPES buffer, and 50 μM β-mercaptoethanol (Sigma Aldrich. To evaluate PAR and Klk6 gene expression in Oli-neu (Table 2), cells were differentiated by treatment with 1 mM N^6, 2′-O-dibutyryladenosine 3′, 5′-cyclic monophosphate disodium salt (dbcAMP) for 72 hours prior to harvesting for RNA isolation. All cells were maintained at 37° C. in 95% air and 5% CO2. Cell culture reagents were obtained from Life Technologies (Carlsbad, CA) unless otherwise indicated. All cell culture experiments were performed in triplicate and repeated at least twice.
Expression of oligodendrocyte PARs and Klk6-real-time quantitative PCR: Total RNA was isolated from cultured cells using RNA STAT-60 (Tel-Test, Friendswood, TX). Klk6, PAR1, or PAR2 RNA expression was determined in 0.5 μg of RNA with the iScript one-step RT-PCR kit with SYBR® Green and the iCycler iQ5 system (BioRad, Hercules, CA). Transcript copy number was determined using a standard curve prepared by parallel amplification of cDNA clones diluted to known copy number (Christophi et al., J Neurochem 91:1439-1449, 2004). Amplification of the housekeeping gene glyceraldehyde phosphate 3-dehydrogenase (GAPDH) was used to control for loading. The mean and standard error (SEM) of transcript copy number was determined and data expressed as RNA copy number on a logarithmic scale.
Regulation of oligodendrocyte myelin gene expression by PAR1 agonists: Primary murine oligodendrocytes (3 DIV) or Oli-neu oligodendrocytes were seeded at 3.5×10^5 cells/well in six-well tissue culture plates. Cells were then treated with Klk6 (30-300 nM), Klk1 (300 nM), thrombin (270 nM), or PAR1-AP (100 μM) for 24 hours prior to RNA isolation. Expression of myelin-associated genes, PLP, and MBP was examined by real-time quantitative RT-PCR. Expression levels of target genes were normalized to GAPDH and expressed as percent control.

[3] = tested on: oligodendrocyte progenitor cells (OPCs); experiment: OPC process outgrowth; type: cell-based, mouse; conditions: 24 h; for OPC process extension / outgrowth: Klk6 150 nM, thrombin 135 nM, Klk1 150 nM
Protocol: (§6) Oligodendrocyte Cultures: Purified cortical oligodendrocyte progenitor cells (OPCs) and differentiated oligodendrocytes were isolated from mixed glial cultures derived from postnatal day 1 mice (McCarthy and de Vellis, J Cell Blot 85:890-902, 1980). Glial cultures were grown in media containing DMEM, 2 mM Glutamax, 1 mM sodium pyruvate, 20 mM HEPES, and 10% heat-inactivated fetal calf serum (Atlanta Biologicals, Lawrenceville, GA). OPCs were isolated from 10 days-in-vitro (DIV) mixed glial cultures by overnight shaking and purified by differential adhesion. OPCs were seeded in defined Neurobasal A media containing 1% N2, 50 U/mL penicillin/streptomycin, 2 mM Glutamax, 1 mM sodium pyruvate, 0.45% glucose, and 50 μM β-mercaptoethanol (Sigma Aldrich, USA). OPCs were seeded at 3×10^4/cm^2 onto tissue culture plastic or 12 mm glass cover slips coated with poly-L-lysine (PLL, 10 μg/mL). After 24 h, cultures were 92-98% immunoreactive (IR) for sulfatide (O4) and by 72 hours at least 80% were also MBP-IR.
as §1, §2, §4

Oli-neu oligodendrocytes = experiment: Process retraction in Oli-neu oligodendrocytes (Phalloidin+ processes per cell); type: cell-based, mouse; conditions: 24 hours, PAR1-AP 100 μM, Klk1 300 nM; for number of processes per cell: Klk6 30, 150, 300 nM, thrombin 270 nM
Protocol: as §5, §1, §2

spinal cord white matter = experiment: Microinjection of Klk6 or PAR1-AP into spinal cord dorsal column white matter; type: in vivo, mouse
Protocol: In vivo effects of excess Klk6 or PAR1-AP in spinal cord white matter: All mice were administered Buprenorphine preoperatively (Buprenex, 0.03 mg/kg, intraperitoneal (i.p.), Reckitt Benckise, Slough, UK) and every 12 hours for the first 48 hours following surgery. Surgical anesthesia was induced in age-matched male C57BL6/J or PAR12/2 mice using Ketamine (Ketaset, 80 mg/kg, Fort Dodge Animal Health, Fort Dodge, IA) and Xylazine i.p. (Anased, 10 mg/kg, Lloyd Laboratories, Shenendoah, IA). A thoracic (T11-T12) laminectomy was performed and a 30-40 μm glass capillary needle inserted into a 10 μL gas-tight Hamilton Syringe (Hamilton Company, Reno, NV) used to deliver 2 μL of Klk6 (0.01 μg/μL (300 nM)), PAR1-AP (0.01 μg/μL (100 μM)), or vehicle (physiologic saline) alone (n=3 for each treatment group) using a stereotaxic injection system (Stoelting, Wood Dale, IL). Under micromanipulator control (MyNeurolab, Richmond, IL), the needle was inserted 350 μm into the dorsal column, infusion carried out over 5 minutes and the needle left in place for 3 minutes to avoid backflow. All mice received 0.5 mL of sterile saline and Baytril (2.5 mg/kg, Bayer Healthcare, Shawnee Mission, KS) i.p. postoperatively.
Seventy-two hours after microinjection of PAR1 agonists, mice were deeply anesthetized with Nembutal (50 mg/kg, i.p., Lundbeck, Deerfield, IL) and perfused transcardially with 4% PFA. Two millimeter transverse spinal cord segments encompassing the microinjection epicenter as well as 2 mm rostral and caudal were embedded in paraffin. Six micrometer sections were cut and slide mounted serially. Every sixth slide was stained with hematoxylin and eosin (H&E). Adjacent sections were immunostained for oligodendroglia using an antibody specific for CC-1/APC (ab16794, AbCam, Cambridge, MA), myelin using an antibody recognizing MBP (MAB386, Millipore, Bedford, MA), and standard avidin-biotin immunoperoxidase techniques (Scarisbrick et al., J Comp Neurol 431:347-361, 2001; and Scarisbrick et al. 2012b, supra). Stained sections were cover slipped with Permount (Fisher Scientific, Pittsburgh, PA) containing 2 mg/mL bisbenzamide to visualize nuclei (Sigma Aldrich).
Measurements of white matter lesion area were based on signs of pathology (vacuolation, tissue destruction, hemorrhage) in 20× digital images of H&E stained sections. The largest lesion area in each animal was used to determine mean maximal lesion area and expressed in μm^2. The integrity of MBP immunoreactivity was assessed in sections for 2,000 μm rostrocaudal to the microinjection site. The number of dorsal column CC-1^+/DAPI^+ cells was quantified in sections across […] of spinal cord extending rostrocaudal to the epicenter. The mean area of dorsal column white matter in the intact spinal cord was approximately […]. To put the number of CC-1^+ oligodendrocytes into context, the mean number CC-1V cells per mm^2 was evaluated as the mean number per […]. Sections stained for CC-1 were also stained for GFAP (Sigma Aldrich), allowing for the exclusion of CC-1^+ astrocytes; however, no examples of double labeled cells were observed.

Erk1/2 phosphorylation = experiment: Klk6-PAR signaling assay, Erk1/2 phosphorylation by Western blot in Oli-neu; type: cell-based, mouse; conditions: treatment alone; Klk6 10 minutes
Protocol: Klk6-PAR signaling assays: To examine the ability of Klk6 to mediate PAR-dependent signaling in oligodendrocytes, Oli-neu oligodendroglia (3.5×10^5 cells/well in six-well plates) were treated with Klk6 (150 nM) for 10 min, followed by protein harvest. Cell lysates were analyzed for phosphorylated or nonphosphorylated Erk1/2 by Western blot. In experiments to determine the role of PARs in Klk6 signaling, Oli-neu were preincubated with the PAR1 antagonist, SCH79797 dihydrochloride (50 nM, Tocris Biosciences, Minneapolis, MN) for 30 minutes prior to Klk6 application.
Western blot: Oli-neu lysates were obtained using a buffer containing 1% NP40, 0.5% deoxycholate, 10% glycerol, and 20 mM Tris base and separated on SDS-polyacrylamide gels prior to transfer. Membranes were blocked with 5% milk in TBS-T and incubated overnight with primary antibodies including rabbit anti-phospho-Erk1/2 (1:1,000, Cell Signaling Technology, Danvers, MA), followed with a species-appropriate horseradish peroxidase-conjugated secondary antibody (1:20,000 GE Healthcare Unlimited, UK). Signal was detected using Chemiluminescence Supersignal Pico (Pierce, Rockford, IL). Western blots were repeated three times from independent cultures, scanned, and quantified by densitometry (BioRad Quantity One 1-D Analysis Software, BioRad, Hercules, CA). Erk1/2 signal was normalized to its nonphosphorylated form. Equal loading was verified by reprobing blots for […] (Novus Biologicals, Littleton, CO).

[4] = tested on: primary oligodendrocyte cultures (3 DIV); experiment: Oligodendrocyte morphological differentiation scoring (simple, incomplete, complete, membrane), process and cell number; type: cell-based, mouse
Protocol: as §6, §1, §2, §3, §4

[5] = Klk6 150 nM, Klk1 300 nM, 24 hours

In the case of `Nc1ncnc2c1ncn2[C@@H]1O[C@H](COP(=O)(O)OP(=O)(O)OP(=O)(O)O)[C@@H](O)[C@H]1O` [ATP, reference compound], the “number of processes per oligodendrocyte” value ([1]; ATP 50 μM alone) is reported as “two-fold reduction”, the “cells with complete morphology” value ([1]; ATP 50 μM alone, 24 h) is reported as “significant decrease” and the “cells with membrane morphology” value ([1]; ATP 50 μM alone, 24 h) is reported as “small, but significant increase”. For the same compound, the “percentage of cells with simple morphology” value ([1]; ATP 50 μM alone, 24 h) was “significant increase” and the “oligodendrocyte number relative to control” value ([1]; ATP alone) was “significant decrease”.
With thrombin the PLP expression [2] was “significantly decreased”, the “number of OPCs” value [3] was “no effect” and the “OPC process extension / outgrowth” value [3] was “inhibited”. For the same compound, the “number of processes per cell” value (Oli-neu oligodendrocytes) was “significant decrease”.
In the case of `N#CC(=C(/N)Sc1ccccc1N)/C(C#N)=C(\N)Sc1ccccc1N` [U0126, reference compound], the “PLP RNA expression” value ([2]; U0126 alone) is reported as “No significant change”.
With “TFLLR-amide (TFLLR-NH2) [PAR1-AP, reference compound]” the “maximal lesion area relative to saline alone” value (spinal cord white matter; PAR1+/+ mice) was “enhanced”, the “reduction of CC-1+ cells in dorsal column white matter” value (spinal cord white matter; PAR1+/+ mice) was about 15% and the “loss of MBP-immunoreactivity relative to saline alone” value (spinal cord white matter; PAR1+/+ mice, 72 hours) was about 45%. The “rostrocaudal white matter pathology” value (spinal cord white matter; PAR1+/+ mice, 0.02 μg, 72 hours) was 1,026.0±105.3 μm, the white matter pathology (spinal cord white matter; PAR1-/- mice) was “absent” and the PLP expression [2] was “significantly decreased”. The “number of processes per cell” value (Oli-neu oligodendrocytes) was “significant decrease”.
“Klk1: Recombinant murine Klk1 expressed using a baculovirus system” was tested, and the Erk1/2 phosphorylation (Erk1/2 phosphorylation) was “No significant changes”, the “number of OPCs” value [3] was “no effect” and the “OPC process extension / outgrowth” value [3] was “comparable to controls”. The Oli-neu cell number (Oli-neu oligodendrocytes; Klk6 30 nM) was “no effect”, the “number of processes per cell” value (Oli-neu oligodendrocytes) was “no effect” and the oligodendrocyte morphology ([4]; 300 nM) was “did not significantly impact”. The oligodendrocyte number [4, 5] was “did not significantly impact”, the processes per cell [4, 5] was “did not significantly impact” and the ATP-induced oligodendrocyte loss ([1]; co-application with ATP) was “did not increase”. For the same compound, the “number of processes per oligodendrocyte” value ([1]; co-application with ATP 50 μM) was “did not impact” and the “oligodendrocytes with membrane morphology” value ([1]; co-application with ATP 50 μM) was “significant decrease”.
